Laboratory results: US20150366890A1, “COMPOSITIONS AND METHODS FOR TREATING FUNGAL INFECTIONS” (TRUSTEES OF BOSTON UNIVERSITY, priority 2013, published 2015)
Where two headings read alike, the source gives them in different places.

Columns and labels:
Format in all cases: cell-based
[1] = tested on: S. cerevisiae single-deletion yeast strains; assay: High-throughput 96-well screen of AF sensitivity of single-gene knockouts (CFU at start and after 8 hours)
Procedure: To identify genes critical to AF action, the AF sensitivity of single-gene knockouts identified through the common transcriptional analysis were identified. In the first pass-through, 56 testable genes were identified. This set was later expanded to include targets identified through phenotypic analysis and metabolomic profiling, for a total of 84 target genes (Table 2). The initial 56 targets were tested using a rapid high-throughput 96-well assay with AMB and MCZ to identify single-gene knockouts with elevated resistance to AFs (Table 2). Knockouts that were more resistant to at least one of the AFs were tested individually using the 24-well colony forming (CF) assay. Target genes selected after the initial 56 strains were assayed individually using the 24-well CF assay.
The first 56 S. cerevisiae strains were acquired from the deletion library and stored in 96-well plates in replicates of three. To start the assay, the plates were defrosted and 10 μl of stored cells were inoculated into 100 μl of fresh synthetic dextrose complete (SDC) media for 16 hours. These overnight cultures were diluted into a fresh 96-well plate with 100 μl of SDC to achieve an OD600 of approximately 0.2. Colony forming units (CFU) in each well were measured at the start of the assay and after 8 hours of incubation. The AF susceptibility of each strain was compared to that of wildtype. Strains with significant susceptibility differences from wildtype were assayed in 0.5 ml of SDC media using the 24-well plate CF assay described above.

[2] = tested on: S. cerevisiae wildtype and deletion strains
S. cerevisiae = assay: Mitochondrial activity by MitoTracker Red fluorescence; conditions: drug added to glucose-incubated (SC, 2% glucose) S. cerevisiae
Procedure: It was next sought to assess the mitochondrial activity of AF-treated fungal cells. Yhe MitoTracker Red dye, which enters the mitochondrial matrix by utilizing the proton motive force and thus labels metabolically active mitochondria in viable cells was used (Arita et al., 2006; Tomas et al., 2011). Exponential phase S. cerevisiae were incubated in glucose-free synthetic complete (SC) media for 30 min and then switched to SC containing 2% glucose or non-fermentable acetate for 1.5 hours.
(§1) Overnight yeast cultures were diluted into the indicated media and grown to an OD600 of 0.2, at which point the AFs were added. Colony forming units (CFU) were measured by plating six serial dilutions onto YPD agar plates. Cells treated with MCZ were washed before serial dilution to stop growth inhibition associated with high concentrations of MCZ. CFU were counted after three days of incubation on agar plates. When indicated, thiourea (Fluka) was added 30 min prior to the addition of AFs. HPF (10 μM) (Invitrogen) and Mito Tracker (1 μM) (Invitrogen) dyes were added to PBS-washed cells at the indicated time points and incubated for 30 min prior to flow cytometry measurements, which were taken on the FACSCalibur (Becton-Dickinson). All experiments described in this section were conducted in 0.5 ml of SDC in 24-well plates incubated at 900 rpm and 37° C. for C. albicans and 30° C. and 300 rpm for S. cerevisiae. TUNEL assays were conducted as previously described (Ribeiro et al., 2006) and are described in detail in the TUNEL section of the Experimental Procedures.

[3] = tested on: C. albicans wildtype and DNA repair mutants; assay: Fungicidal killing, CFU assay; conditions: C. albicans rad50/rad50 and rad52/rad52, 3 hours of drug exposure
Procedure: Overnight yeast cultures were diluted into the indicated media and grown to an OD600 of 0.2, at which point the AFs were added. Colony forming units (CFU) were measured by plating six serial dilutions onto YPD agar plates.
as §1

[4] = S. cerevisiae PAB103, SDH2 deletion
[5] = S. cerevisiae PAB107, NDE1 deletion
[6] = S. cerevisiae PAB112, MNE1 deletion
[7] = S. cerevisiae PAB113, FUM1 deletion
[8] = S. cerevisiae PAB114, TPK2 deletion
[9] = S. cerevisiae PAB119, CIT2 deletion
[10] = S. cerevisiae PAB121, SDH1 deletion
[11] = S. cerevisiae PAB122, TPK3 deletion
[12] = S. cerevisiae PAB124, TPK1 deletion
[13] = S. cerevisiae PAB132, CIT3 deletion
[14] = S. cerevisiae PAB135, NDI1 deletion
[15] = S. cerevisiae PAB145, CIT1 deletion

With `Clc1ccc(COC(Cn2ccnc2)c2ccc(Cl)cc2Cl)c(Cl)c1` (stereo not drawn) [MCZ, miconazole] the “96 Well Screen, AF susceptibility vs wildtype” value (shortened to “96 Well Screen … vs wildtype”) ([1]; S. cerevisiae PAB101, WT) was “Normal”, the “96 Well Screen … vs wildtype” value ([1]; S. cerevisiae PAB102, HSP104 deletion) was “Normal” and the “96 Well Screen … vs wildtype” value [1, 4] was “Resistant (″Resistant″ or ″Sensitive″ indicate at least a 5-fold CFU difference from wildtype at the final time point)”. The “96 Well Screen … vs wildtype” value ([1]; S. cerevisiae PAB104, FRE8 deletion) was “Normal”, the “96 Well Screen … vs wildtype” value ([1]; S. cerevisiae PAB105, CHA4 deletion) was “Normal” and the “96 Well Screen … vs wildtype” value ([1]; S. cerevisiae PAB106, FMS1 deletion) was “Normal”. For the same molecule, the “96 Well Screen … vs wildtype” value [1, 5] was “Resistant (″Resistant″ or ″Sensitive″ indicate at least a 5-fold CFU difference from wildtype at the final time point)”, the “96 Well Screen … vs wildtype” value ([1]; S. cerevisiae PAB108, ALD3 deletion) was “Normal” and the “96 Well Screen … vs wildtype” value ([1]; S. cerevisiae PAB109, GAD1 deletion) was “Normal”. For the same molecule, the “96 Well Screen … vs wildtype” value ([1]; S. cerevisiae PAB110, PGM3 deletion) was “Normal”, the “96 Well Screen … vs wildtype” value ([1]; S. cerevisiae PAB111, PYK2 deletion) was “Resistant (″Resistant″ or ″Sensitive″ indicate at least a 5-fold CFU difference from wildtype at the final time point)” and the “96 Well Screen … vs wildtype” value [1, 6] was “Normal”. The “96 Well Screen … vs wildtype” value [1, 7] was “Resistant (″Resistant″ or ″Sensitive″ indicate at least a 5-fold CFU difference from wildtype at the final time point)”, the “96 Well Screen … vs wildtype” value [1, 8] was “Normal” and the “96 Well Screen … vs wildtype” value ([1]; S. cerevisiae PAB115, ATG29 deletion) was “Normal”. For the same molecule, the “96 Well Screen … vs wildtype” value ([1]; S. cerevisiae PAB116, ISU1 deletion) was “Normal”, the “96 Well Screen … vs wildtype” value ([1]; S. cerevisiae PAB117, CYC7 deletion) was “Normal” and the “96 Well Screen … vs wildtype” value ([1]; S. cerevisiae PAB118, ARN1 deletion) was “Normal”. For the same molecule, the “96 Well Screen … vs wildtype” value [1, 9] was “Resistant (″Resistant″ or ″Sensitive″ indicate at least a 5-fold CFU difference from wildtype at the final time point)”, the “96 Well Screen … vs wildtype” value ([1]; S. cerevisiae PAB120, HSP30 deletion) was “Resistant (″Resistant″ or ″Sensitive″ indicate at least a 5-fold CFU difference from wildtype at the final time point)” and the “96 Well Screen … vs wildtype” value [1, 10] was “Resistant (″Resistant″ or ″Sensitive″ indicate at least a 5-fold CFU difference from wildtype at the final time point)”. The “96 Well Screen … vs wildtype” value [1, 11] was “Resistant (″Resistant″ or ″Sensitive″ indicate at least a 5-fold CFU difference from wildtype at the final time point)”, the “96 Well Screen … vs wildtype” value ([1]; S. cerevisiae PAB123, ISU2 deletion) was “Normal” and the “96 Well Screen … vs wildtype” value [1, 12] was “Normal”. The “96 Well Screen … vs wildtype” value ([1]; S. cerevisiae PAB125, MID2 deletion) was “Normal”, the “96 Well Screen … vs wildtype” value ([1]; S. cerevisiae PAB126, SSK1 deletion) was “Normal” and the “96 Well Screen … vs wildtype” value ([1]; S. cerevisiae PAB127, HSP42 deletion) was “Normal”. The “96 Well Screen … vs wildtype” value ([1]; S. cerevisiae PAB128, PIG1 deletion) was “Normal”, the “96 Well Screen … vs wildtype” value ([1]; S. cerevisiae PAB130, UGA1 deletion) was “Normal” and the “96 Well Screen … vs wildtype” value ([1]; S. cerevisiae PAB131, MTL1 deletion) was “Normal”. For the same molecule, the “96 Well Screen … vs wildtype” value [1, 13] was “Resistant (″Resistant″ or ″Sensitive″ indicate at least a 5-fold CFU difference from wildtype at the final time point)”, the “96 Well Screen … vs wildtype” value ([1]; S. cerevisiae PAB133, ZWF1 deletion) was “Normal” and the “96 Well Screen … vs wildtype” value ([1]; S. cerevisiae PAB134, SUM1 deletion) was “Normal”. For the same molecule, the “96 Well Screen … vs wildtype” value [1, 14] was “Normal”, the “96 Well Screen … vs wildtype” value ([1]; S. cerevisiae PAB136, PGM2 deletion) was “Resistant (″Resistant″ or ″Sensitive″ indicate at least a 5-fold CFU difference from wildtype at the final time point)” and the “96 Well Screen … vs wildtype” value ([1]; S. cerevisiae PAB137, HFD1 deletion) was “Normal”. For the same molecule, the “96 Well Screen … vs wildtype” value ([1]; S. cerevisiae PAB138, PUF2 deletion) was “Normal”, the “96 Well Screen … vs wildtype” value ([1]; S. cerevisiae PAB139, TDH1 deletion) was “Normal” and the “96 Well Screen … vs wildtype” value ([1]; S. cerevisiae PAB140, GUD1 deletion) was “Sensitive (″Resistant″ or ″Sensitive″ indicate at least a 5-fold CFU difference from wildtype at the final time point)”. For the same molecule, the “96 Well Screen … vs wildtype” value ([1]; S. cerevisiae PAB141, ATG15 deletion) was “Normal”, the “96 Well Screen … vs wildtype” value ([1]; S. cerevisiae PAB142, TDH2 deletion) was “Normal” and the “96 Well Screen … vs wildtype” value ([1]; S. cerevisiae PAB143, ATP1 deletion) was “Normal”. The “96 Well Screen … vs wildtype” value ([1]; S. cerevisiae PAB144, UGA2 deletion) was “Normal”, the “96 Well Screen … vs wildtype” value [1, 15] was “Resistant (″Resistant″ or ″Sensitive″ indicate at least a 5-fold CFU difference from wildtype at the final time point)” and the “96 Well Screen … vs wildtype” value ([1]; S. cerevisiae PAB146, SOLI deletion) was “Normal”. For the same molecule, the “96 Well Screen … vs wildtype” value ([1]; S. cerevisiae PAB147, PAN6 deletion) was “Normal”, the “96 Well Screen … vs wildtype” value ([1]; S. cerevisiae PAB148, SOL4 deletion) was “Normal” and the “96 Well Screen … vs wildtype” value ([1]; S. cerevisiae PAB149, YAK1 deletion) was “Sensitive (″Resistant″ or ″Sensitive″ indicate at least a 5-fold CFU difference from wildtype at the final time point)”. For the same molecule, the “96 Well Screen … vs wildtype” value ([1]; S. cerevisiae PAB150, PBS2 deletion) was “Sensitive (″Resistant″ or ″Sensitive″ indicate at least a 5-fold CFU difference from wildtype at the final time point)”, the “96 Well Screen … vs wildtype” value ([1]; S. cerevisiae PAB152, GPD1 deletion) was “Sensitive (″Resistant″ or ″Sensitive″ indicate at least a 5-fold CFU difference from wildtype at the final time point)” and the “96 Well Screen … vs wildtype” value ([1]; S. cerevisiae PAB153, SHO1 deletion) was “Sensitive (″Resistant″ or ″Sensitive″ indicate at least a 5-fold CFU difference from wildtype at the final time point)”. The “96 Well Screen … vs wildtype” value ([1]; S. cerevisiae PAB154, FET3 deletion) was “Sensitive (″Resistant″ or ″Sensitive″ indicate at least a 5-fold CFU difference from wildtype at the final time point)”, the “96 Well Screen … vs wildtype” value ([1]; S. cerevisiae PAB155, FBP1 deletion) was “Sensitive (″Resistant″ or ″Sensitive″ indicate at least a 5-fold CFU difference from wildtype at the final time point)” and the “96 Well Screen … vs wildtype” value ([1]; S. cerevisiae PAB156, COX6 deletion) was “Sensitive (″Resistant″ or ″Sensitive″ indicate at least a 5-fold CFU difference from wildtype at the final time point)”. The “additive resistance on deleting the remaining citrate synthases in the cit3 background” value ([2]; S. cerevisiae CIT1/CIT2 deletions in cit3 background) was “not observed”, the “CFU (24-well colony forming assay), AF susceptibility vs wildtype” value (from here on “CFU … vs wildtype”) [2, 4] was “Resistant (″Resistant″ or ″Sensitive″ indicate at least a 5-fold CFU difference from wildtype at the final time point)” and the “CFU … vs wildtype” value [2, 5] was “Resistant (″Resistant″ or ″Sensitive″ indicate at least a 5-fold CFU difference from wildtype at the final time point)”. The “CFU … vs wildtype” value [2, 6] was “Resistant (″Resistant″ or ″Sensitive″ indicate at least a 5-fold CFU difference from wildtype at the final time point)”, the “CFU … vs wildtype” value [2, 7] was “Resistant (″Resistant″ or ″Sensitive″ indicate at least a 5-fold CFU difference from wildtype at the final time point)” and the “CFU … vs wildtype” value [2, 8] was “Resistant (″Resistant″ or ″Sensitive″ indicate at least a 5-fold CFU difference from wildtype at the final time point)”. The “CFU … vs wildtype” value [2, 9] was “Resistant (″Resistant″ or ″Sensitive″ indicate at least a 5-fold CFU difference from wildtype at the final time point)”, the “CFU … vs wildtype” value [2, 10] was “Resistant (″Resistant″ or ″Sensitive″ indicate at least a 5-fold CFU difference from wildtype at the final time point)” and the “CFU … vs wildtype” value [2, 11] was “Resistant (″Resistant″ or ″Sensitive″ indicate at least a 5-fold CFU difference from wildtype at the final time point)”. For the same molecule, the “CFU … vs wildtype” value [2, 12] was “Resistant (″Resistant″ or ″Sensitive″ indicate at least a 5-fold CFU difference from wildtype at the final time point)”, the “CFU … vs wildtype” value [2, 13] was “Resistant (″Resistant″ or ″Sensitive″ indicate at least a 5-fold CFU difference from wildtype at the final time point)” and the “CFU … vs wildtype” value [2, 14] was “Resistant (″Resistant″ or ″Sensitive″ indicate at least a 5-fold CFU difference from wildtype at the final time point)”. The “CFU … vs wildtype” value [2, 15] was “Resistant (″Resistant″ or ″Sensitive″ indicate at least a 5-fold CFU difference from wildtype at the final time point)”, the “CFU … vs wildtype” value ([2]; S. cerevisiae PAB168, RAS1 deletion) was “Resistant (″Resistant″ or ″Sensitive″ indicate at least a 5-fold CFU difference from wildtype at the final time point)” and the “CFU … vs wildtype” value ([2]; S. cerevisiae PAB171, RAS2 deletion) was “Resistant (″Resistant″ or ″Sensitive″ indicate at least a 5-fold CFU difference from wildtype at the final time point)”. For the same molecule, the “reduction of killing at 3 hours by thiourea” value ([2]; S. cerevisiae, 50 mM thiourea for 30 minutes prior to the addition of AF drugs) was roughly 10 fold, the “increase of MitoTracker fluorescence” value (S. cerevisiae) was 70 fold and the “susceptibility of DSBR mutants compared to wildtype” value [3] was “particularly susceptible”.
